Laboratory results published in patent EP2769723A1, “Compounds for use in inhibiting HIV capsid assembly” (priority 2013, dated 2014).
Where a name gives a salt, the structure may show the parent alone. Read-outs that look alike come from different tables or passages of the source.

Key:
[1] = Solubility observations (DMSO, ITC buffer); assay type: physicochemical
in vitro = assay type: cell-based; conditions: human
Procedure: (§1) Cytotoxicity of selected hits tested in the assay with NL4.3 infected cells was determined by MTT test. TZM cells were seeded on the previous day on 96-well plate in the density 5 x 10^3 cells per well. The tested compounds were added in different concentrations, but the DMSO concentration never exceeded 1 % DMSO. As controls were used cells treated only with 1 % DMSO (non-toxic concentration) and cells treated with 5 % DMSO (toxic concentration). 20 µl of the CellTiter 96 Aqueous One substrate (Promega) was added to the 100 µl of culture media 48 hrs after the compounds addition and the color development was quantified 4 hrs later by measuring the absorbance at 490 nm on Saphire reader. Compounds were consider non-cytotoxic (at given concentrations) when the measured values were higher than 80 % of the value of 1 % DMSO treated cells.

wild type NL4.3 HIV-1 = assay: Tissue culture infectivity test, TZM titration of supernatants from infected TZM cells; assay type: cell-based; conditions: Human immunodeficiency virus 1, TZM
Procedure: Hits selected in the YFP-screen were further evaluated in the tissue culture experiments with cells infected with the wild type NL4.3 HIV-1. The virus for infection was obtained from co-culture of MT4 cells. The MT4 cells co-culture was synchronized for one week and then used for the infection of fresh MT 4 cells. 48 hrs post-infection was the culture supernatant harvested, cleared by the filtration through […] filter and stored in -80 °C in 1 ml aliquots. Amount of virus was quantified by enzyme-linked immuno sorbent assay (ELISA) with antibodies against HIV-1 CA (3 ng of CA/ml) and blue cell assay (1x10^5 IU/ml), which gives 3 x 10^4 IU/ng of CA.
For compounds testing the TZM cells were seeded on 96-well plate in the density 5 x 10^3 cells per well. The culture media was aspirated approx. 16 hrs later and cells were infected by the wild type NLA.3 HIV-1 by addition of 50J..il of prepared virus stock diluted with 50 µl of complete DMEM. The compounds were added twice to ensure that there are not any preassembled viruses present at the time of their addition. Compounds were first added 8 hrs post-infection and then 24 hrs later. In both cases the old culture media were replaced by 100 µl of fresh complete DMEM prior to the compounds addition. Different compounds concentrations were tested, but the DMSO concentration never exceeded 1 % DMSO. As controls were used cells treated only with 1 % DMSO and cells treated with 0,1 µM Lopinavir (HIV-1 protease inhibitor). Supernatant was harvested 24 hrs after the second compound addition, i.e. 56 hrs post-infection. Harvested supernatants were immediately titrated on the fresh TZM cells in aim to perform the infectivity assay (TZM titration), or inactivated by addition of Triton X-100 to the final concentration 0.025 % for further ELISA analysis.
TZM titration was performed on the cells seeded day before on 96-well plate in the density 5 x 10^3 cells per well. The analysis was performed for each compound concentration at three different dilutions and in duplicates. The culture media was aspired and cells were lysed 48 hrs post-infection by addition of 100 µl of SteadyGlo luciferase substrate (Promega) diluted 1 : 1 by complete DMEM. The luminescence signal was measured on Luminoskan Ascent (Thermo Labsystems) after the transfer of 80 µl of lysate to the flat bottom white polystyrene assay plates (Costar).

CA = target: T1, CA (Human immunodeficiency virus type 1 group M subtype B, UniProt P12493); assay: ALPHA screen (AlphaScreen): inhibition of CAI binding to CA; parameters: species or system HIV-1
T1 construct: a fusion protein of CA with glutathione-S-transferase (CA-GST)
Procedure: The AlphaScreen experiments are performed using Perkin Elmer Enspire plate reader in white 96-well ProxiPlates and PBS supplemented with 0.05% Tween20, 2mM DTT, 2% DMSO. First, Streptavidin-coated Donor beads are used to capture the CAI-biotin peptide. In the other solution, a fusion protein of CA with glutathione-S-transferase (CA-GST) is mixed with GSH Acceptor beads. Both mixtures were incubated and then mixed together. To test the ability of prepared organic compounds to inhibit the CAI binding to CA, they are screened at concentrations between 0.5-100 µM and IC50 values are calculated from the influenced signals.
Upon illumination by laser at 680 nm, Donor beads containing the photosensitizer phthalocyanine convert ambient oxygen to an excited form of singlet oxygen ^1O2. Singlet oxygen can within its half-life of ~ 4 µs diffuse approximately 200 nm in solution. If an Acceptor bead is within that proximity, which is mostly upon CA:CAI interaction, energy is transferred from the singlet oxygen to thioxene derivates within the Acceptor and signal at 520 - 620 nm is emitted.

TZM cells = assay: in vitro; assay type: cell-based; conditions: Table 4; non-cytotoxic when values higher than 80 % of 1 % DMSO treated cells
Procedure: as §1

[2] = target: HIV capsid protein C-terminal part (Human immunodeficiency virus type 1 group M subtype B, UniProt P12493); assay: Isothermal titration calorimetry (ITC), C-terminal part; assay type: binding; conditions: dissociation constant
Procedure: Upper graph: raw experimental data. Lower graph: Fit (line) to the integrated heats (full circles) from each injection, corrected for the heat of dilution of CA ligand AMR-346.
(§2) The binding of CA ligand AMR-346 to the HIV capsid protein and its C-terminal part was monitared using a VP-ITC microcalorimeter (MicroCal Inc., Northampton, USA) at 25 °C. The solutions of reactants were prepared in 30 mM MES, pH 6.0 containing 10 % glycerol, 2 mM 2-mercaptoethanol, 2 % DMSO, and the exact concentrations of proteins were determined by amino acid analysis. […] The isothermal titration was used to estimate the ligand concentration and the binding parameters were calculated for situation when single AMR-346 molecule binds to monomer or dimer of protein, respectively. Typically, 9 µl aliquots of AMR-346 were injected stepwise into the sample cell containing 1.43 ml of 7 µM protein until saturation was achieved. The experiment was accompanied by a corresponding control experiment in which AMR-346 was injected into buffer alone. The association constants were determined by software developed by MicroCal.
The CA ligand AMR-346 binds to monomer of HIV capsid protein or its C-terminal part with dissociation constants of 230 nM or 50 nM, respectively. […]

HIV capsid protein = HIV capsid protein (Human immunodeficiency virus type 1 group M subtype B, UniProt P12493); assay: Isothermal titration calorimetry (ITC), whole capsid protein; assay type: binding; conditions: dissociation constant
Procedure: as §2
The CA ligand AMR-346 binds to monomer of HIV capsid protein or its C-terminal part with dissociation constants of 230 nM or 50 nM, respectively. For the binding mode of single molecule AMR-346 toward dimeric capsid protein and its C-terminal part, the dissociation constants were estimated to be 120 nM and 26 nM, respectively. Table 4: Synthesized and tested compounds

[3] = CAI-biotin peptide / CA-GST, compounds screened at 0.5-100 µM, read-out: α screen IC50
[4] = read-out: tissue culture IC50 (µM)
[5] = Table 4, non-cytotoxic when values higher than 80 % of 1 % DMSO treated cells, read-out: toxicity LC50
[6] = Table 5, MTT cytotoxicity test, read-out: CC50
[7] = Table 4, cells infected with wild type NL4.3 HIV-1, read-out: tissue culture IC50

SMILES | toxicity LC50 (µM) (TZM cells) | IC50 (wild type NL4.3 HIV-1; [4]) | other results
Cl.O=C(O)c1cc(O)ccc1Nc1nc(-c2cccnc2)nc2ccccc12 [5-hydroxy-2-(2-(pyridin-3-yl)quinazolin-4-ylamino)benzoic acid hydrochloride] | – | – | solubility in DMSO [1]: insolubility in DMSO
c1cncc(-c2nc(Nc3ccc4[nH]nnc4c3)c3ccccc3n2)c1 [AMR.325] | – | – | CC50 at 48 h (in vitro; tzm cells, Table 5, MTT cytotoxicity test, read-out: CC50): 200 µM; IC50 (wild type NL4.3 HIV-1): 6.9 µM; IC50 (CA; [3]): > 200 µM
CCOC(=O)c1ccc(Nc2nc(-c3ccncc3)nc3ccccc23)cc1 [AMR.346] | non-toxic | ~15 µM | solubility ([1]; 30 mM MES, pH 6.0, 10 % glycerol, 2 % DMSO, concentration required for ITC): low solubility; Kd ([2]; one ligand binds to monomer of C-terminal part, 25 °C, pH 6.0): 0.05 µM; Kd ([2]; single molecule binds to dimeric C-terminal part, estimated): 0.026 µM; IC50 (CA): 7.2 µM; Kd (HIV capsid protein; one ligand binds to monomer of HIV capsid protein, 25 °C, pH 6.0): 0.23 µM; Kd (HIV capsid protein; single molecule binds to dimeric capsid protein, estimated): 0.12 µM
CNc1ccc([N+](=O)[O-])cc1Nc1nc(-c2cccnc2)nc2ccccc12 [AMR.494] | – | – | CC50 at 48 h (in vitro; [5]): ~15 µM; CC50 at 48 h (in vitro; [6]): 16.1 µM; IC50 (wild type NL4.3 HIV-1): 1.8 µM; IC50 (CA; [3]): 0.9 µM
O=[N+]([O-])c1ccc(Nc2nc(-c3cccnc3)nc3ccccc23)c(I)c1 [KP-108] | – | ~1.5 µM | CC50 at 48 h (in vitro; [5]): ~20 µM
OCc1ccc(Nc2nc(-c3cccnc3)nc3ccccc23)cc1 [KP-236] | – | ~10 µM | CC50 at 48 h (in vitro; [5]): ~10 µM
Clc1cc(Nc2nc(-c3cccnc3)nc3ccccc23)cc(Cl)c1Cl [KP-253] | – | – | solubility in DMSO [1]: insoluble in DMSO
COc1ccc(Nc2nc(Cl)nc3ccccc23)cn1 [KP-288] | non-toxic | > 10 µM | –
COc1ccc(Nc2nc(-c3cc(F)c(F)c(F)c3)nc3ccccc23)cn1 [KP-291] | non-toxic | > 10 µM | –
c1cncc(-c2nc(Oc3nc(-c4cccnc4)nc4ccccc34)c3ccccc3n2)c1 [OSA-296] | non-toxic | > 10 µM | –
O=C(c1ccccc1)c1ccc(Nc2nc(-c3ccncc3)nc3ccccc23)cc1 [OSR-48] | non toxic | > 25 µM | –
CNc1ccc([N+](=O)[O-])cc1Nc1nc(-c2ccc(C(=O)c3ccccc3)cc2)nc2ccccc12 [OSR-77] | – | ~3 µM | CC50 at 48 h (in vitro; [5]): ~7 µM; CC50 at 48 h (in vitro; [6]): 7.1 µM; IC50 (wild type NL4.3 HIV-1): 2 µM
COCCOc1cc2nc(-c3cccnc3)nc(Nc3ccc(C(=O)O)cc3O)c2cc1OCCOC [OSR-79 free base] | non toxic | > 25 µM | –
NC(=O)c1c(F)cccc1Nc1nc(-c2ccccn2)nc2ccccc12 [OSR-85] | non toxic | ~8 µM | CC50 at 48 h (in vitro; [6]): 125 µM; IC50 (wild type NL4.3 HIV-1): 6.5 µM
O=[N+]([O-])c1ccc(F)c(Nc2nc(-c3cccnc3)nc3cc(C(F)(F)F)ccc23)c1 [OSR-178] | – | ~5 µM | CC50 at 48 h (in vitro; [5]): ~11 µM; CC50 at 48 h (in vitro; [6]): 5 µM; IC50 (wild type NL4.3 HIV-1): 1.5 µM
O[C@H]1CC[C@H](Nc2nc(-c3cccnc3)nc3ccccc23)CC1 [OSR-183] | non-toxic | > 25 µM | –
FC(F)(F)c1cccc(Nc2nc(-c3cccnc3)nc3ccccc23)c1 [OSR-198] | non-toxic | > 25 µM | –
Fc1cc(Nc2nc(-c3cccnc3)nc3ccccc23)cc(F)c1F [OSR-199] | non-toxic | ~5 µM | CC50 at 48 h (in vitro; [6]): 100 µM; IC50 (wild type NL4.3 HIV-1): 5.1 µM
FC(F)(F)c1cccc(Nc2nc(-c3cccnc3)nc3cc(C(F)(F)F)ccc23)c1 [OSR-201] | non-toxic | ~8 µM | CC50 at 48 h (in vitro; [6]): 25 µM; IC50 (wild type NL4.3 HIV-1): 8.5 µM
Fc1cc(Nc2cc(-c3cccnc3)nc3ccccc23)cc(F)c1F [OSR-205] | non-toxic | ~10 µM | –
CCOc1nc(-c2cccnc2)nc2ccccc12 [OSR-236] | non-toxic | – | IC50 (wild type NL4.3 HIV-1; [7]): 10 to 15 µM
CN(C)c1nc(-c2cccnc2)nc2ccc(O)cc12 [OSR-242X] | non-toxic | – | IC50 (wild type NL4.3 HIV-1; [7]): 0.5 to 1 µM
COCCN(CCOC)c1nc(-c2cccnc2)nc2ccccc12 [OSR-283 HCl] | non-toxic | > 10 µM | –
CC(C)(C)Oc1nc(-c2cccnc2)nc2ccccc12 [OSR-285] | non-toxic | > 10 µM | –
c1ccc(Sc2nc(-c3cccnc3)nc3ccccc23)cc1 [OSR-290] | non-toxic | > 10 µM | –
c1cncc(-c2nc(SCCSc3nc(-c4cccnc4)nc4ccccc34)c3ccccc3n2)c1 [OSR-291] | – | – | solubility in DMSO [1]: insoluble in DMSO
CC(C)Nc1nc(-c2cccnc2)nc2ccccc12 [OSR-295] | non-toxic | > 10 µM | –
Fc1ccc(Nc2nc(-c3cccnc3)nc3ccccc23)c(F)c1F [OSR-298] | non-toxic | > 10 µM | –
Fc1cc(F)c(Nc2nc(-c3cccnc3)nc3ccccc23)cc1F [OSR-299] | non-toxic | ~10 µM | –
CN(C)c1nc(-c2cccnc2)nc2ccc(OS(C)(=O)=O)cc12 [OSR-302] | – | – | CC50 at 48 h (in vitro; [5]): ~7 µM
